Source: patent US7846945B2, “Piperdine-based inhibitors of sodium glucose co-transporter 2 and methods of their use” (Lexicon Pharmaceuticals, Inc., priority 2007, dated 2010)

The compounds below were run against T1, Human sodium/glucose co-transporter type 2 (SGLT2) (Homo sapiens, UniProt P31639) (assay: In vitro human SGLT2 inhibition assay (14C-AMG uptake)). Conditions: HEK293 cells expressing human HA-SGLT2; potent = SGLT2 IC50 of less than about 500 nM; read-out: SGLT2 IC50 (potent SGLT2 inhibitor mark).
T1 construct: HA; expressed in transfected cells
T1 sequence (P31639 1-672): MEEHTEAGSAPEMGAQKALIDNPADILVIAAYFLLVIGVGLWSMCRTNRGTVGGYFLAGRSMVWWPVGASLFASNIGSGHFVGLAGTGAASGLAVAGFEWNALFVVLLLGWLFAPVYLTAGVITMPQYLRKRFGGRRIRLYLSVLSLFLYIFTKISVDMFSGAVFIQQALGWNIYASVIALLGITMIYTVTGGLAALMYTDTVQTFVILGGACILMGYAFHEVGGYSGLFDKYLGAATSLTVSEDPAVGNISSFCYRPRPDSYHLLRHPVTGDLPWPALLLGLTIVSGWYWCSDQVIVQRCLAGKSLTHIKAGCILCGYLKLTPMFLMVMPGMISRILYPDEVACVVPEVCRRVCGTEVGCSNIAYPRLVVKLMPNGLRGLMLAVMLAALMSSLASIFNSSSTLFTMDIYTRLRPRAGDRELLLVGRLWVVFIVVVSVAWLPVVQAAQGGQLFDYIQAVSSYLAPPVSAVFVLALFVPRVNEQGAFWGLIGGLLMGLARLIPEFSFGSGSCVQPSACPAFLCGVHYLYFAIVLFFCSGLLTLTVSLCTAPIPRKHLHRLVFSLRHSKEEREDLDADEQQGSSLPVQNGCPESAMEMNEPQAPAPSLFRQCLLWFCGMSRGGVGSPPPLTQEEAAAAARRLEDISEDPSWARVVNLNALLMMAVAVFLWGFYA
Format: cell-based
Procedure: HEK293 cells were transfected with the human HA-SGLT2-pIRESpuro2 vector and the bulk stable cell line was selected in presence of 0.5 μg/ml of puromycin. Human HA-SGLT2 cells were maintained in DMEM media containing 10% FBS, 1% GPS and 0.5 μg/ml of puromycin.
The HEK293 cells expressing the human HA-SGLT2 were seeded in 384 well plates (30,000 cells/well) in DMEM media containing 10% FBS, 1% GPS and 0.5 μg/ml of puromycin, then incubated overnight at 37 C, 5% CO2. Cells were then washed with uptake buffer (140 mM NaCl, 2 mM KCl, 1 mM CaCl2, 1 mM MgCl2, 10 mM HEPES, 5 mM Tris, 1 mg/ml bovine serum albumin (BSA), pH 7.3). Twenty microliters of uptake buffer with or without testing compounds were added to the cells. Then, 20 microliters of uptake buffer containing ^14C-AMG (100 nCi) were added to the cells. The cell plates were incubated at 37° C., 5% CO2 for 1-2 hours. After washing the cells with uptake buffer, scintillation fluid was added (40 microliters/well) and ^14C-AMG uptake was measured by counting radioactivity using a scintillation coulter (TopCoulter NXT; Packard Instruments).
The IC50 of a compound with regard to a given target is determined by fitting the relevant data, using the Levenburg Marquardt algorithm, to the equation: y=A+((B−A)/(1+((C/x)^D))) wherein A is the minimum y value; B is the maximum y value; C is the IC50; and D is the slope.

IC50 [µM] | Compound
< 0.5 | CCOc1ccc(Cc2cc([C@@H]3O[C@H](Oc4ccccc4)[C@@H](O)[C@H](O)[C@H]3O)ccc2Cl)cc1 [(2S,3R,4R,5S,6R)-2-[4-Chloro-3-(4-ethoxy-benzyl)-phenyl]-6-phenoxy-tetrahydro-pyran-3,4,5-triol]
< 0.5 | CCCSC1O[C@@H](c2ccc(Cl)c(Cc3ccc(OCC)cc3)c2)[C@H](O)[C@@H](O)[C@@H]1O (stereo partly drawn) [(2S,3R,4R,5S)-2-[4-Chloro-3-(4-ethoxy-benzyl)-phenyl]-6-propylsulfanyl-tetrahydro-pyran-3,4,5-triol]
< 0.5 | CCOc1ccc(-c2cccc([C@@H]3OC(OC)[C@@H](O)[C@H](O)[C@H]3O)c2)cc1 (stereo partly drawn) [(2S,3R,4R,5S)-2-(4′-Ethoxy-biphenyl-3-yl)-6-methoxy-tetrahydro-pyran-3,4,5-triol]
< 0.5 | CCOc1ccc(Cc2cc([C@@H]3OC(OCCOC)[C@@H](O)[C@H](O)[C@H]3O)ccc2Cl)cc1 (stereo partly drawn) [(2S,3R,4R,5S)-2-[4-Chloro-3-(4-ethoxy-benzyl)-phenyl]-6-(2-methoxy-ethoxy)-tetrahydro-pyran-3,4,5-triol]
< 0.5 | COC1O[C@@H](c2ccc(Cl)c(Cc3ccc(Oc4ccncc4)cc3)c2)[C@H](O)[C@@H](O)[C@@H]1O (stereo partly drawn) [(2S,3R,4R,5S)-2-{4-Chloro-3-[4-(pyridin-4-yloxy)-benzyl]-phenyl}-6-methoxy-tetrahydro-pyran-3,4,5-triol]
< 0.5 | COC1O[C@@H](c2ccc(Cl)c(Cc3ccc(Oc4cncnc4)cc3)c2)[C@H](O)[C@@H](O)[C@@H]1O (stereo partly drawn) [(2S,3R,4R,5S)-2-{4-Chloro-3-[4-(pyrimidin-5-yloxy)-benzyl]-phenyl}-6-methoxy-tetrahydro-pyran-3,4,5-triol]
< 0.5 | CCOc1ccc(C(=O)c2cc([C@@H]3O[C@H](OC)[C@@H](O)[C@H](O)[C@H]3O)ccc2Cl)cc1 [[2-Chloro-5-((2S,3R,4R,5S,6S)-3,4,5-trihydroxy-6-methoxy-tetrahydro-pyran-2-yl)-phenyl]-(4-ethoxy-phenyl)-methanone]
< 0.5 | CCOc1ccc(Cc2cc([C@@H]3OC(OC)[C@@H](O)[C@H](O)[C@H]3O)ccc2C)cc1 (stereo partly drawn) [(2S,3R,4R,5S)-2-[3-(4-Ethoxy-benzyl)-4-methyl-phenyl]-6-methoxy-tetrahydro-pyran-3,4,5-triol]
< 0.5 | CCOc1ccc(Cc2cc([C@@H]3O[C@H](SC4CCCC4)[C@@H](O)[C@H](O)[C@H]3O)ccc2Cl)cc1 [(2S,3R,4R,5S,6R)-2-[4-Chloro-3-(4-ethoxy-benzyl)-phenyl]-6-cyclopentylsulfanyl-tetrahydro-pyran-3,4,5-triol]
< 0.5 | CCOc1ccc(Cc2cc([C@@H]3OC(OCC(=O)OC)[C@@H](O)[C@H](O)[C@H]3O)ccc2Cl)cc1 (stereo partly drawn) [{(3S,4R,5R,6S)-6-[4-Chloro-3-(4-ethoxy-benzyl)-phenyl]-3,4,5-trihydroxy-tetrahydro-pyran-2-yloxy}-acetic acid methyl ester]
< 0.5 | COC1O[C@@H](c2cccc(Cc3ccc(OCCO)cc3)c2)[C@H](O)[C@@H](O)[C@@H]1O (stereo partly drawn) [(2S,3R,4R,5S)-2-{3-[4-(2-Hydroxy-ethoxy)-benzyl]-phenyl}-6-methoxy-tetrahydro-pyran-3,4,5-triol]
< 0.5 | CCOc1ccc(Cc2cc([C@@H]3O[C@H](SC4CCOC4C)[C@@H](O)[C@H](O)[C@H]3O)ccc2Cl)cc1 (stereo partly drawn) [(2S,3R,4R,5S,6R)-2-[4-Chloro-3-(4-ethoxy-benzyl)-phenyl]-6-(2-methyl-tetrahydro-furan-3-ylsulfanyl)-tetrahydro-pyran-3,4,5-triol]
< 0.5 | CCOc1ccc(Cc2cc([C@@H]3O[C@H](SC[C@H](N)C(=O)O)[C@@H](O)[C@H](O)[C@H]3O)ccc2Cl)cc1 [(R)-2-Amino-3-{(2R,3S,4R,5R,6S)-6-[4-chloro-3-(4-ethoxy-benzyl)-phenyl]-3,4,5-trihydroxy-tetrahydro-pyran-2-ylsulfanyl}-propionic acid]
< 0.5 | CCOc1ccc(Cc2cc([C@@H]3O[C@H](SCCC(C)C)[C@@H](O)[C@H](O)[C@H]3O)ccc2Cl)cc1 [(2S,3R,4R,5S,6R)-2-[4-Chloro-3-(4-ethoxy-benzyl)-phenyl]-6-(3-methyl-butylsulfanyl)-tetrahydro-pyran-3,4,5-triol]
< 0.5 | CCOc1ccc(Cc2cc([C@H]3[C@H](O)[C@@H](O)[C@H](O)CN3CC(N)=O)ccc2Cl)cc1 [2-{(2S,3S,4S,5R)-2-[4-Chloro-3-(4-ethoxy-benzyl)-phenyl]-3,4,5-trihydroxy-piperidin-1-yl}-acetamide]
< 0.5 | CCOc1ccc(Cc2cc([C@@H]3O[C@H]([S+]([O-])CC)[C@@H](O)[C@H](O)[C@H]3O)ccc2Cl)cc1 (stereo partly drawn) [(2S,3R,4R,5S,6R)-2-[4-Chloro-3-(4-ethoxy-benzyl)-phenyl]-6-ethanesulfinyl-tetrahydro-pyran-3,4,5-triol]
< 0.5 | COC1O[C@@H](c2ccc(Cl)c(Cc3ccc(OC4CCOCC4)cc3)c2)[C@H](O)[C@@H](O)[C@@H]1O (stereo partly drawn) [(2S,3R,4R,5S)-2-{4-Chloro-3-[4-(tetrahydro-pyran-4-yloxy)-benzyl]-phenyl}-6-methoxy-tetrahydro-pyran-3,4,5-triol]
< 0.5 | CCOc1ccc(Cc2cc([C@H]3[C@H](O)[C@@H](O)[C@H](O)CN3CC(C)C)ccc2Cl)cc1 [(2S,3S,4S,5R)-2-[4-Chloro-3-(4-ethoxy-benzyl)-phenyl]-1-isobutyl-piperidine-3,4,5-triol]
< 0.5 | COC1O[C@@H](c2ccc(Cl)c(Cc3ccc(OC(=S)N(C)C)cc3)c2)[C@H](O)[C@@H](O)[C@@H]1O (stereo partly drawn) [Dimethyl-thiocarbamic acid O-{4-[2-chloro-5-((2S,3R,4R,5S)-3,4,5-trihydroxy-6-methoxy-tetrahydro-pyran-2-yl)-benzyl]-phenyl} ester]
< 0.5 | COC1O[C@@H](c2ccc(Cl)c(Cc3ccc(O[C@H]4CCN(C)C4)cc3)c2)[C@H](O)[C@@H](O)[C@@H]1O (stereo partly drawn) [(2S,3R,4R,5S)-2-{4-Chloro-3-[4-((S)-1-methyl-pyrrolidin-3-yloxy)-benzyl]-phenyl}-6-methoxy-tetrahydro-pyran-3,4,5-triol]
< 0.5 | CCOc1ccc(Cc2cc([C@@H]3OC(OCCN(C)C)[C@@H](O)[C@H](O)[C@H]3O)ccc2Cl)cc1 (stereo partly drawn) [(2S,3R,4R,5S)-2-[4-Chloro-3-(4-ethoxy-benzyl)-phenyl]-6-(2-dimethylamino-ethoxy)-tetrahydro-pyran-3,4,5-triol]
< 0.5 | COC1O[C@@H](c2ccc(Cl)c(Cc3ccc(OC4CCN(C)CC4)cc3)c2)[C@H](O)[C@@H](O)[C@@H]1O (stereo partly drawn) [(2S,3R,4R,5S)-2-{4-Chloro-3-[4-(1-methyl-piperidin-4-yloxy)-benzyl]-phenyl}-6-methoxy-tetrahydro-pyran-3,4,5-triol]
< 0.5 | CCOc1ccc(Cc2cc([C@@H]3O[C@H]([S+](C)[O-])[C@@H](O)[C@H](O)[C@H]3O)ccc2Cl)cc1 (stereo partly drawn) [(2S,3R,4R,5S,6R)-2-[4-Chloro-3-(4-ethoxy-benzyl)-phenyl]-6-methanesulfinyl-tetrahydro-pyran-3,4,5-triol]
< 0.5 | CCOc1ccc(C(O)c2cc([C@@H]3O[C@H](OC)[C@@H](O)[C@H](O)[C@H]3O)ccc2Cl)cc1 (stereo partly drawn) [(2S,3R,4R,5S,6S)-2-{4-Chloro-3-[(4-ethoxy-phenyl)-hydroxy-methyl]-phenyl}-6-methoxy-tetrahydro-pyran-3,4,5-triol]
< 0.5 | CCOc1ccc(Cc2cc([C@@H]3OC(OCC(O)CO)[C@@H](O)[C@H](O)[C@H]3O)ccc2Cl)cc1 (stereo partly drawn) [(2S,3R,4R,5S)-2-[4-Chloro-3-(4-ethoxy-benzyl)-phenyl]-6-(2,3-dihydroxy-propoxy)-tetrahydro-pyran-3,4,5-triol]
< 0.5 | CO[C@H]1O[C@@H](c2ccc(Cl)c(Cc3ccc(O[C@@H]4CCOC4)cc3)c2)[C@H](O)[C@@H](O)[C@@H]1O [(2S,3R,4R,5S,6S)-2-(4-Chloro-3-{4-[(R)-(tetrahydro-furan-3-yl)oxy]-benzyl}-phenyl)-6-methoxy-tetrahydro-pyran-3,4,5-triol]

Compound | IC50 [µM]
CCOc1ccc(Cc2cc([C@@H]3O[C@H](SC)[C@@H](O)[C@H](O)[C@H]3O)ccc2Cl)cc1 [(2S,3R,4R,5S,6R)-2-[4-Chloro-3-(4-ethoxy-benzyl)-phenyl]-6-methylsulfanyl-tetrahydro-pyran-3,4,5-triol] | < 0.5
